Consider 21 compounds from US9206130B2, “Quinoline derivatives as AXL kinase inhibitors” (Max-Planck-Gesellschaft zur Förderung der Wissenschaften …, priority 2008, dated 2015).

What is called melting point is the temperature of the solid-liquid transition. As a reminder, the IC50 is the concentration that gives 50% inhibition.

Data set [1] concerns the target T1, wild type AXL (wtAXL) receptor tyrosine kinase (Homo sapiens, UniProt P30530).
T1 construct: WtAXL cDNA was cloned into vector pLXSN(ESK) and transfected into Phoenix E packaging cells; expressed in transfected cells; host or cells: NIH3T3 N7 mouse fibroblasts, retrovirally infected (clone 22)
T1 sequence (P30530 26-894): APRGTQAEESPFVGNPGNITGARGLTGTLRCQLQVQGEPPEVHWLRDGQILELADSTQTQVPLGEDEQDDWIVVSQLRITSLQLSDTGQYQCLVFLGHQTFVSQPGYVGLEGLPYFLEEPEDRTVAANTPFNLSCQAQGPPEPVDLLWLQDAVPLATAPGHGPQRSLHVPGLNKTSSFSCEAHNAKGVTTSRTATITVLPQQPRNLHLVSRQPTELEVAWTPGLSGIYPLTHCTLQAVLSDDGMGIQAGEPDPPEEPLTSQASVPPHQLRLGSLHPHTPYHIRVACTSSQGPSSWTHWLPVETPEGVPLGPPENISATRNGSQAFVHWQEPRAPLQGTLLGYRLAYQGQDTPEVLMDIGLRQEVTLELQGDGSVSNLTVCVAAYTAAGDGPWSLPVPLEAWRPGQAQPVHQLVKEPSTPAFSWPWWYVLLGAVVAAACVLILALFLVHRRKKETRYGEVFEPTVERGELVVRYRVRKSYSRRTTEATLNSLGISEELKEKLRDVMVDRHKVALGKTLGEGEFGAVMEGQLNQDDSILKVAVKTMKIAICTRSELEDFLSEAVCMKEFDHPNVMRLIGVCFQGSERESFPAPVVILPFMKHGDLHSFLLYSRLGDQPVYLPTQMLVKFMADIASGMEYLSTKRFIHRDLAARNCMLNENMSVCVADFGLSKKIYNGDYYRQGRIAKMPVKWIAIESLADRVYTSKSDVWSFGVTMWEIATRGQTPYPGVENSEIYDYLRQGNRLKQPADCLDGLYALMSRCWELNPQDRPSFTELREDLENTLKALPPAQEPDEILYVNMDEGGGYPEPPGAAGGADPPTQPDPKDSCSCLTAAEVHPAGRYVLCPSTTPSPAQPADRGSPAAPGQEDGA
As to the kind of experiment: NIH-3T3-AXL cellular tyrosine kinase assay (inhibition of AXL phosphorylation). It counts as cell-based. Conditions: AXL phosphorylation in NIH-3T3-AXL (clone 22) cells, serum-depleted, 2 h with compound, immunoprecipitation / anti-phosphotyrosine blot. Summed up: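 NIH3T3 clones stably expressing human wtAXL (puromycin-selected) were exposed to serially diluted compounds for 2 h. AXL was immunoprecipitated from lysates with anti-AXL antibody, and phosphorylation detected by anti-phosphotyrosine (4G10) western blot with ECL.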

Consider `Cc1cc(Oc2ccc(NS(=O)(=O)c3ccc4c(c3)CC(=O)N4C)c(F)c2)c2cccc(C(F)(F)F)c2n1` [Example C19, 1-Methyl-2-oxo-2,3-dihydro-1H-indole-5-sulfonic acid [2-fluoro-4-(2-methyl-8-trifluoro-methyl-quinolin-4-yloxy)-phenyl]-amide], for which the melting point was 225 to 226 °C. Also, in data set [1], the IC50 was over 10000 nM.
As to `COc1cc2nccc(Oc3ccc(NS(=O)(=O)c4cccc(OC(F)F)c4)c(F)c3)c2cc1OC` [Example A15, 3-Difluoromethoxy-N-[4-(6,7-dimethoxy-quinolin-4-yloxy)-2-fluoro-phenyl]-benzenesulfonamide], the melting point lay within 238 to 239 °C. Also, the IC50 in data set [1] worked out at 2260 nM.
For `COc1cc2nccc(Oc3ccc(NS(=O)(=O)c4cc(Cl)cc(Cl)c4O)cc3OC)c2cc1OC` [Example A156, 3,5-Dichloro-N-[4-(6,7-dimethoxy-quinolin-4-yloxy)-3-methoxy-phenyl]-2-hydroxy-benzenesulfonamide], in that order: over 240 °C and over 1000 nM.
The compound `Cc1cc(Oc2ccc(NS(=O)(=O)c3cc(F)ccc3F)c(F)c2)c2cccc(C(F)(F)F)c2n1` [Example C11, 2,5-Difluoro-N-[2-fluoro-4-(2-methyl-8-trifluoromethyl-quinolin-4-yloxy)-phenyl]-benzenesulfonamide] showed a melting point of 179 to 181 °C. Besides, the IC50 in data set [1] is over 10000 nM.
Compound `COc1cccc(S(=O)(=O)Nc2ccc(Oc3cc(C)nc4ccc(F)cc34)cc2F)c1` [Example B3, N-[2-Fluoro-4-(6-fluoro-2-methyl-quinolin-4-yloxy)-phenyl]-3-methoxy-benzenesulfonamide] displayed a melting point of 150 to 151 °C. Further, in data set [1], the IC50 amounted to 8000 nM.
The compound `COc1cc2nccc(Oc3ccc(NS(=O)(=O)c4cccc(Oc5ccccc5)c4)c(C)c3)c2cc1OC` [Example A90, N-[4-(6,7-Dimethoxy-quinolin-4-yloxy)-2-methyl-phenyl]-3-phenoxy-benzenesulfonamide] registered a melting point of 169 to 170 °C. Further, the IC50 in data set [1] was over 10000 nM.
Taken in the same sequence, the figures for `COc1cc2nccc(Oc3ccc(NS(=O)(=O)c4ccc(-c5ccccc5)cc4)cc3)c2cc1OC` [Example A81, Biphenyl-4-sulfonic acid [4-(6,7-dimethoxy-quinolin-4-yloxy)-phenyl]-amide] were 191 to 194 °C and over 10000 nM.
In the case of `CCCS(=O)(=O)Nc1ccc(Oc2ccnc3cc(OCCCN4CCC(C)CC4)c(OC)cc23)c(F)c1` [Example D22, Propane-1-sulfonic acid (3-fluoro-4-{6-methoxy-7-[3-(4-methyl-piperidin-1-yl)-propoxy]-quinolin-4-yloxy}-phenyl)-amide], the melting point lay in the range of 160 to 162 °C. The half-inhibitory concentration (IC50) in data set [1] was 477 nM.
In turn, `COc1cc2nccc(Oc3ccc(NS(=O)(=O)c4ccc(OC)c5ccccc45)cc3)c2cc1OC` [Example A133, 4-Methoxy-naphthalene-1-sulfonic acid [4-(6,7-dimethoxy-quinolin-4-yloxy)-phenyl]-amide] displayed a melting point of 240 to 242 °C. The IC50 in data set [1] is over 10000 nM.
Taken in the same sequence, the figures for `Cc1cc(Oc2ccc(NS(=O)(=O)c3ccc(F)cc3F)cc2)c2cc(F)ccc2n1` [Example B12, 2,4-Difluoro-N-[4-(6-fluoro-2-methyl-quinolin-4-yloxy)-phenyl]-benzenesulfonamide] were 179 to 180 °C and over 10000 nM.
With `COc1cc2nccc(Oc3ccc(NS(=O)(=O)c4cc(Cl)cc(Cl)c4OC)c(F)c3)c2cc1OC` [Example A50, 3,5-Dichloro-N-[4-(6,7-dimethoxy-quinolin-4-yloxy)-2-fluoro-phenyl]-2-methoxy-benzenesulfonamide], the melting point was in the range of 193 to 195 °C. In addition, the 50% inhibitory concentration (IC50) in data set [1] was under 1000 nM.
Regarding `COc1cc2nccc(Oc3ccc(NS(=O)(=O)c4cccc5ccccc45)cc3OC)c2cc1OC` [Example A140, Naphthalene-1-sulfonic acid [4-(6,7-dimethoxy-quinolin-4-yloxy)-3-methoxy-phenyl]-amide], the melting point is 124 to 126 °C. In addition, the IC50 in data set [1] was over 10000 nM.
Taken in the same sequence, the figures for `COc1c(Cl)cc(Cl)cc1S(=O)(=O)Nc1ccc(Oc2cc(C)nc3ccc(F)cc23)cc1` [Example B11, 3,5-Dichloro-N-[4-(6-fluoro-2-methyl-quinolin-4-yloxy)-phenyl]-2-methoxy-benzenesulfonamide] were 192 to 193 °C and under 1000 nM.
In turn, `CCc1ccc(S(=O)(=O)Nc2ccc(Oc3ccnc4cc(OC)c(OC)cc34)cc2F)cc1` [Example A56, N-[4-(6,7-Dimethoxy-quinolin-4-yloxy)-2-fluoro-phenyl]-4-ethyl-benzenesulfonamide] showed a melting point of 193 to 195 °C. In data set [1], the IC50 was over 1000 nM.
For `COc1cc2nccc(Oc3ccc(NS(=O)(=O)c4cc(C)c(NC(C)=O)c(C)c4)cc3)c2cc1OC` [Example A66, N-{4-[4-(6,7-Dimethoxy-quinolin-4-yloxy)-phenylsulfamoyl]-2,6-dimethyl-phenyl}-acetamide], in that order: 145 to 147 °C and over 10000 nM.
Take `COc1cc2nccc(Oc3ccc(NS(=O)(=O)c4ccc(OC)c(C(C)(C)C)c4)cc3)c2cc1OC` [Example A70, 3-tert-Butyl-N-[4-(6,7-dimethoxy-quinolin-4-yloxy)-phenyl]-4-methoxy-benzenesulfonamide]: the melting point lay within 229 to 231 °C. In data set [1], the concentration for half-maximal inhibition (IC50) was over 10000 nM.
On to `COc1cc2nccc(Oc3ccc(NS(=O)(=O)c4ccc(Br)c(Cl)c4)cc3)c2cc1OC` [Example A117, 4-Bromo-3-chloro-N-[4-(6,7-dimethoxy-quinolin-4-yloxy)-phenyl]-benzenesulfonamide], for which the melting point lay in the range of 232 to 234 °C. Further, the IC50 in data set [1] is over 10000 nM.
For the compound `COc1cc2c(Oc3ccc(NS(=O)(=O)c4ccc(Cl)cc4F)cc3F)ccnc2cc1OCCN1CCOCC1` [Example D12, 4-Chloro-2-fluoro-N-{3-fluoro-4-[6-methoxy-7-(2-morpholin-4-yl-ethoxy)-quinolin-4-yloxy]-phenyl}-benzenesulfonamide], the melting point was 212 to 214 °C. Besides, in data set [1], the IC50 turned out to be 300 nM.
The compound `COc1cc2nccc(Oc3ccc(NS(=O)(=O)c4cccc(-c5ccccc5)c4)cc3OC)c2cc1OC` [Example A138, Biphenyl-3-sulfonic acid [4-(6,7-dimethoxy-quinolin-4-yloxy)-3-methoxy-phenyl]-amide] displayed a melting point of 108 to 110 °C. The IC50 in data set [1] is over 10000 nM.
`COc1cc2nccc(Oc3ccc(NS(=O)(=O)c4cccc(-c5ccccc5)c4)c(C)c3)c2cc1OC` [Example A89, Biphenyl-3-sulfonic acid [4-(6,7-dimethoxy-quinolin-4-yloxy)-2-methyl-phenyl]-amide]: the melting point is 220 to 222 °C. The IC50 in data set [1] was determined as 450 nM.
Taken in the same sequence, the figures for `COc1cc2nccc(Oc3ccc(NS(=O)(=O)CC(C)C)c(F)c3)c2cc1OC` [Example A72, 2-Methyl-propane-1-sulfonic acid [4-(6,7-dimethoxy-quinolin-4-yloxy)-2-fluoro-phenyl]-amide] were 175 to 176 °C and 580 nM.
